Source: patent US20050107289A1, “Anti-microbial peptides and compositions” (priority 2001, published 2005)
Read-outs that look alike come from different tables or passages of the source. Non-standard residues stand in square brackets, D forms with d. Residues, ends and D or L forms follow the SMILES beside them.

Assays:
[1] = test system: murine red blood cells; assay: Red blood cell hemolysis; type: cell-based, mouse
In short: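 Hemolysis read as A560 of supernatant, scaled between saline (0%) and 1% Triton X-100 (100%) controls; peptides were serially diluted onto 5% murine red cells in saline plus 10% FBS and incubated 30 min at 37° C.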

[2] = test system: vancomycin-resistant Enterococus faecalis (VRE)(ATCC 51575); type: cell-based, Enterococcus faecalis; design: key to VRE (in vitro activity): peptide concentration in μg/ml (broth dilution assay); details: Table 9
In short: (§1)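 MIC read from NCCLS-style broth dilution. Peptide concentrations were set by quantitative HPLC or Trp UV absorbance at 280 nm, then serially halved from about 400 to 2 μg/ml in 5% DMSO/9% sucrose. Inoculum: approximately 2.5×10^5 cfu/ml.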

[3] = test system: S. aureus (MRSA) ATCC 33591; type: cell-based, Staphylococcus aureus; details: Table 9
In short: as §1

[4] = media c: Brain Heart Infusion (BHI)
[5] = media b: cation adjusted Meuller Hinton broth (MHBII)
[6] = media a: anti-microbial media-3 (AM-3)

## CC(C)C[C@H]1NC(=O)[C@H](Cc2ccc(O)cc2)NC(=O)[C@@H](CCCCN)NC(=O)[C@H](CO)NC(=O)[C@@H](CO)NC(=O)[C@H](CCCCN)NC(=O)[C@@H](CC(C)C)NC(=O)[C@H](Cc2ccc(O)cc2)NC1=O [SEQ ID NO:83, [KSSKYLYL]] (cyclo(K[dS]S[dK]Y[dL]Y[dL]))
[1]
  RBC Hemolysis (HD50): >340
[2]; [4]
  VRE (in vitro activity): 170
[3]; [5]
  MRSA (in vitro activity): 85

## CC(C)C[C@H]1NC(=O)[C@H](Cc2c[nH]c3ccccc23)NC(=O)[C@@H](CO)NC(=O)[C@H](CCCCN)NC(=O)[C@@H](CO)NC(=O)[C@H](CCCNC(=N)N)NC(=O)[C@@H](CC(C)C)NC(=O)[C@H](Cc2c[nH]c3ccccc23)NC1=O [SEQ ID NO:84, [KSWLWLRS]] (cyclo(K[dS]W[dL]W[dL]R[dS]))
[1]
  RBC Hemolysis (HD50): >62
[2]; media a: AM-3
  VRE (in vitro activity): 12
[3]; [6]
  MRSA (in vitro activity): 9

## CC(C)C[C@@H]1NC(=O)[C@@H](Cc2c[nH]c3ccccc23)NC(=O)[C@H](CCCCN)NC(=O)[C@@H](Cc2c[nH]cn2)NC(=O)[C@H](CCCCN)NC(=O)[C@@H](Cc2c[nH]cn2)NC(=O)[C@H](CCCCN)NC(=O)[C@@H](Cc2c[nH]c3ccccc23)NC1=O [SEQ ID NO:85, [KHKHKWLW]] (cyclo(K[dH]K[dH]K[dW]L[dW]))
[1]
  RBC Hemolysis (HD50): 150
[2]; [4]
  VRE (in vitro activity): 6
[3]; [5]
  MRSA (in vitro activity): 6

## CC(C)C[C@H]1NC(=O)[C@H](CCCCN)NC(=O)[C@@H](Cc2c[nH]cn2)NC(=O)[C@H](CCC(N)=O)NC(=O)[C@@H](Cc2c[nH]cn2)NC(=O)[C@H](CCCCN)NC(=O)[C@@H](CC(C)C)NC(=O)[C@H](Cc2c[nH]c3ccccc23)NC1=O [SEQ ID NO:86, [KHQHKLWL]] (cyclo(K[dH]Q[dH]K[dL]W[dL]))
[1]
  RBC Hemolysis (HD50): >200
[2]; [4]
  VRE (in vitro activity): 100
[3]; [5]
  MRSA (in vitro activity): 100

## CC(C)C[C@@H]1NC(=O)[C@@H](Cc2c[nH]c3ccccc23)NC(=O)[C@H](CCCCN)NC(=O)[C@@H](Cc2c[nH]cn2)NC(=O)[C@H](CCC(N)=O)NC(=O)[C@@H](Cc2c[nH]cn2)NC(=O)[C@H](CCCCN)NC(=O)[C@@H](Cc2c[nH]c3ccccc23)NC1=O [SEQ ID NO:87, [KHQHKWLW]] (cyclo(K[dH]Q[dH]K[dW]L[dW]))
[1]
  RBC Hemolysis (HD50): 200
[2]; [4]
  VRE (in vitro activity): 12
[3]; [5]
  MRSA (in vitro activity): 6

## CC(C)C[C@@H]1NC(=O)[C@@H](Cc2c[nH]c3ccccc23)NC(=O)[C@H](CCCCN)NC(=O)[C@@H](Cc2c[nH]cn2)NC(=O)[C@H](CO)NC(=O)[C@@H](Cc2c[nH]cn2)NC(=O)[C@H](CCCCN)NC(=O)[C@@H](Cc2c[nH]c3ccccc23)NC1=O [SEQ ID NO:88, [KHSHKWLW]] (cyclo([dW]L[dW]K[dH]S[dH]K))
[1]
  RBC Hemolysis (HD50): 200
[2]; [4]
  VRE (in vitro activity): 6
[3]; [5]
  MRSA (in vitro activity): 6

## NCCCC[C@@H]1NC(=O)[C@@H](Cc2ccccc2)NC(=O)[C@H](Cc2c[nH]c3ccccc23)NC(=O)[C@@H](Cc2ccccc2)NC(=O)[C@H](CCCCN)NC(=O)[C@@H](CC(N)=O)NC(=O)[C@H](CCC(N)=O)NC(=O)[C@@H](CC(N)=O)NC1=O [SEQ ID NO:89, [KNQNKFWF]] (cyclo(K[dN]Q[dN]K[dF]W[dF]))
[1]
  RBC Hemolysis (HD50): 280
[2]; [4]
  VRE (in vitro activity): 70
[3]; [5]
  MRSA (in vitro activity): 17

## CC(C)C[C@H]1NC(=O)[C@H](CCCCN)NC(=O)[C@@H](CC(N)=O)NC(=O)[C@H](CCC(N)=O)NC(=O)[C@@H](CC(N)=O)NC(=O)[C@H](CCCCN)NC(=O)[C@@H](CC(C)C)NC(=O)[C@H](Cc2c[nH]c3ccccc23)NC1=O [SEQ ID NO:90, [KNQNKLWL]] (cyclo(K[dN]Q[dN]K[dL]W[dL]))
[1]
  RBC Hemolysis (HD50): >200
[2]; [4]
  VRE (in vitro activity): >200
[3]; [5]
  MRSA (in vitro activity): >200

## CC(C)C[C@@H]1NC(=O)[C@@H](Cc2c[nH]c3ccccc23)NC(=O)[C@H](CCCCN)NC(=O)[C@@H](CO)NC(=O)[C@H](CCCCN)NC(=O)[C@@H](CO)NC(=O)[C@H](CCCCN)NC(=O)[C@@H](Cc2c[nH]c3ccccc23)NC1=O [SEQ ID NO:91, [KSKSKWLW]] (cyclo(K[dS]K[dS]K[dW]L[dW]))
[1]
  RBC Hemolysis (HD50): 200
[2]; [4]
  VRE (in vitro activity): 12
[3]; [5]
  MRSA (in vitro activity): 6

## CC(C)C[C@@H]1NC(=O)[C@@H](Cc2c[nH]c3ccccc23)NC(=O)[C@H](CCCCN)NC(=O)[C@@H](CO)NC(=O)[C@H](CCC(N)=O)NC(=O)[C@@H](CO)NC(=O)[C@H](CCCCN)NC(=O)[C@@H](Cc2c[nH]c3ccccc23)NC1=O [SEQ ID NO:92, [KSQSKWLW]] (cyclo(K[dS]Q[dS]K[dW]L[dW]))
[1]
  RBC Hemolysis (HD50): 195
[2]; [4]
  VRE (in vitro activity): 18
[3]; [5]
  MRSA (in vitro activity): 9

## CC(C)C[C@@H]1NC(=O)[C@@H](Cc2c[nH]c3ccccc23)NC(=O)[C@H](CCCCN)NC(=O)[C@@H](CO)NC(=O)[C@H](CO)NC(=O)[C@@H](CO)NC(=O)[C@H](CCCCN)NC(=O)[C@@H](Cc2c[nH]c3ccccc23)NC1=O [SEQ ID NO:93, [KSSSKWLW]] (cyclo(K[dS]S[dS]K[dW]L[dW]))
[1]
  RBC Hemolysis (HD50): 175
[2]; [4]
  VRE (in vitro activity): 6
[3]; [5]
  MRSA (in vitro activity): 6

## NCCCC[C@@H]1NC(=O)[C@@H](Cc2ccc(O)cc2)NC(=O)[C@H](CCC(N)=O)NC(=O)[C@@H](Cc2ccc(O)cc2)NC(=O)[C@H](CCCCN)NC(=O)[C@@H](CC(N)=O)NC(=O)[C@H](Cc2c[nH]c3ccccc23)NC(=O)[C@@H](CC(N)=O)NC1=O [SEQ ID NO:94, [KYQYKNWN]] (cyclo(K[dN]W[dN]K[dY]Q[dY]))
[1]
  RBC Hemolysis (HD50): >200
[2]; [4]
  VRE (in vitro activity): >200
[3]; [5]
  MRSA (in vitro activity): >200

## C[C@H]1NC(=O)[C@H](CCC(N)=O)NC(=O)[C@@H](C)NC(=O)[C@H](CCCCN)NC(=O)[C@@H](C)NC(=O)[C@H](Cc2c[nH]c3ccccc23)NC(=O)[C@@H](C)NC(=O)[C@H](CCCCN)NC1=O [SEQ ID NO:95, [KAQAKAWA]] (cyclo(K[dA]Q[dA]K[dA]W[dA]))
[1]
  RBC Hemolysis (HD50): >200
[2]; [4]
  VRE (in vitro activity): >200
[3]; [5]
  MRSA (in vitro activity): >200

## C[C@H]1NC(=O)[C@H](CCCCN)NC(=O)[C@@H](CC(N)=O)NC(=O)[C@H](CCC(N)=O)NC(=O)[C@@H](C)NC(=O)[C@H](CCCCN)NC(=O)[C@@H](CC(N)=O)NC(=O)[C@H](Cc2c[nH]c3ccccc23)NC1=O [SEQ ID NO:96, [KAQNKAWN]] (cyclo(K[dA]Q[dN]K[dA]W[dN]))
[1]
  RBC Hemolysis (HD50): >200
[2]; [4]
  VRE (in vitro activity): >200
[3]; [5]
  MRSA (in vitro activity): >200

## C[C@H]1NC(=O)[C@H](CCCCN)NC(=O)[C@@H](Cc2ccccc2)NC(=O)[C@H](CCC(N)=O)NC(=O)[C@@H](C)NC(=O)[C@H](CCCCN)NC(=O)[C@@H](Cc2ccccc2)NC(=O)[C@H](Cc2c[nH]c3ccccc23)NC1=O [SEQ ID NO:97, [KAQFKAWF]] (cyclo(K[dA]Q[dF]K[dA]W[dF]))
[1]
  RBC Hemolysis (HD50): >200
[2]; [4]
  VRE (in vitro activity): 100
[3]; [5]
  MRSA (in vitro activity): 100

## NCCCC[C@@H]1NC(=O)[C@@H](Cc2ccccc2)NC(=O)[C@H](CCC(N)=O)NC(=O)[C@@H](Cc2ccccc2)NC(=O)[C@H](CCCCN)NC(=O)[C@@H](CC(N)=O)NC(=O)[C@H](Cc2c[nH]c3ccccc23)NC(=O)[C@@H](CC(N)=O)NC1=O [SEQ ID NO:98, [KFQFKNWN]] (cyclo(K[dF]Q[dF]K[dN]W[dN]))
[1]
  RBC Hemolysis (HD50): >280
[2]; [4]
  VRE (in vitro activity): >200
[3]; [5]
  MRSA (in vitro activity): >200

## CC(C)C[C@H]1NC(=O)[C@H](Cc2c[nH]c3ccccc23)NC(=O)[C@@H](Cc2ccccc2)NC(=O)[C@H](CCCCN)NC(=O)[C@@H](Cc2c[nH]c3ccccc23)NC(=O)[C@H](Cc2c[nH]cn2)NC(=O)[C@@H](CC(C)C)NC(=O)[C@H](Cc2c[nH]c3ccccc23)NC1=O [SEQ ID NO:99, [KFWLWLHW]] (cyclo(K[dF]W[dL]W[dL]H[dW]))
[1]
  RBC Hemolysis (HD50): >25
[2]; media a: AM-3
  VRE (in vitro activity): 21
[3]; [6]
  MRSA (in vitro activity): 21

## CC(C)C[C@H]1NC(=O)[C@H](Cc2c[nH]c3ccccc23)NC(=O)[C@@H](Cc2ccccc2)NC(=O)[C@H](CCCCN)NC(=O)[C@@H](Cc2ccccc2)NC(=O)[C@H](CCCCN)NC(=O)[C@@H](CC(C)C)NC(=O)[C@H](Cc2c[nH]c3ccccc23)NC1=O [SEQ ID NO:100, [KFWLWLKF]] (cyclo(K[dF]W[dL]W[dL]K[dF]))
[1]
  RBC Hemolysis (HD50): >78
[2]; media a: AM-3
  VRE (in vitro activity): 10
[3]; [6]
  MRSA (in vitro activity): 11

## N=C(N)NCCC[C@H]1NC(=O)[C@H](CCCCN)NC(=O)[C@@H](Cc2ccccc2)NC(=O)[C@H](Cc2c[nH]c3ccccc23)NC(=O)[C@@H](Cc2ccccc2)NC(=O)[C@H](CCCCN)NC(=O)[C@@H](Cc2ccccc2)NC(=O)[C@H](CCC(N)=O)NC1=O [SEQ ID NO:102, [KRQFKFWF]] (cyclo(K[dR]Q[dF]K[dF]W[dF]))
[1]
  RBC Hemolysis (HD50): >200
[2]; [4]
  VRE (in vitro activity): 12
[3]; [5]
  MRSA (in vitro activity): 12
